Measured values taken from publication PMC8458504, “Targeting the actin nucleation promoting factor WASp provides a therapeutic approach for hematopoietic malignancies” (Nature Communications, 2021).

Target: T1, YFP-WASp wt (Wiskott–Aldrich Syndrome protein) (Homo sapiens, UniProt P42768)
T1 construct: gene WAS; full-length wild type, YFP-tagged, transiently expressed in HEK 293T (endogenous WIP present); diluted whole-cell lysate, not purified
T1 sequence (P42768 2-502): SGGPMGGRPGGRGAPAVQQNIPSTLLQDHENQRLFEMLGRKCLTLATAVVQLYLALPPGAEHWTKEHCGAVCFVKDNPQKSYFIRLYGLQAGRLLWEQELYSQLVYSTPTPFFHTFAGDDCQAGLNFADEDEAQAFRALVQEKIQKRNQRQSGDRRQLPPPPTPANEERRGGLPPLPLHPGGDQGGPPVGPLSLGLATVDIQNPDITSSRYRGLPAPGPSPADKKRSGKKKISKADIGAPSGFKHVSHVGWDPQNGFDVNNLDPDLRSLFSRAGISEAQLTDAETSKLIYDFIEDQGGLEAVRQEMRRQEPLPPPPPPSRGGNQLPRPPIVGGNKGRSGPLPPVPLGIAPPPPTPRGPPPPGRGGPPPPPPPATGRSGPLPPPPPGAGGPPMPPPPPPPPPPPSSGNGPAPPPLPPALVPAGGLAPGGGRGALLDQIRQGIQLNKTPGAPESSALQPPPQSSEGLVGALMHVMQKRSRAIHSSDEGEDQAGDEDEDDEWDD
Assay: microscale thermophoresis in diluted HEK […] lysate
Format: binding

Kd: 30.8 ± 13.6 nM
Structure (SMILES): COc1ccc(CN2C(=O)N(CC(C)C)C3(CCN(C4Cc5ccccc5C4)CC3)C2=O)cc1 [SMC #13, 8-(2,3-dihydro-1H-inden-2-yl)-1-isobutyl-3-(4-methoxybenzyl)-1,3,8-triazaspiro[4.5]decane-2,4-dione]
